Data on three compounds can be found in patent US7455654B2, “Method and apparatus for reducing the incidence of tobacco use” (Alza Corporation, priority 2003, dated 2008).

The conditions of series [1]: 0.2 wt. % Tween 20. On the procedure: A 30 wt. % nicotine HCl solution is prepared in water. To that solution is added 0.1 wt. % hydroxyethyl cellulose and 0.2 wt. % of the surfactant Tween 20. The coating solution is then applied to the microprojections using the coating methods described in U.S. Publication No. 2002/0132054.
(§1) An aqueous solution consisting of 5 wt. % nicotine base, 5 wt. % hydroxypropyl methylcellulose (HPMC, Methocel E5 premium LV EP JP, Dow Chemical Company, Midland Mich.) and 0.2 wt. % Tween 20 is prepared. The coating solution is then applied to the microprojections using the coating methods described in U.S. Publication No. 2002/0132054.

For series [2] the following is noted: 2 cm^2 device coated with ca. 300 micrograms nicotine HCl, applied in humans with applicator.
For series [3] the following is noted: 2 cm^2 device coated with ca. 400 micrograms nicotine base; essentially immediate delivery on application to the skin. On the procedure: as §1
The procedure of series [4]: An aqueous solution containing 40 wt. % nicotine hydrogen tartrate was prepared. Sufficient fluorescein was added to the solution to generate a 0.001 M concentration. This agent was used to assess the quality of the coating after drying.
A strip of titanium foil was prepared by washing the surface with acetone and drying. Five microliters of the coating solution (or formulation) was applied and dried for four hours at room temperature.

Read-outs that look alike come from different tables or passages of the source.

Take `CN1CCCC1c1cccnc1.Cl` (stereo not drawn) [nicotine HCl]: in series [1] (30 wt. % nicotine HCl in water, 0.1 wt. % hydroxyethyl cellulose), the “coating distribution across the projections” value is “well distributed across the projections”. Also, the “delivery of the nicotine contained on the projections” value in series [2] is recorded as “more than 70%”.

Consider `CN1CCC[C@H]1c1cccnc1` [nicotine base], for which, in series [1] (aqueous 5 wt. % nicotine base, 5 wt. % HPMC), the “coating distribution across the projections” value is given as “well distributed across the projections”. The “amount of nicotine base delivered to the user” value in series [3] was 300 micrograms.

For `CN1CCCC1c1cccnc1.O=C(O)C(O)C(O)C(=O)O` (stereo not drawn) [nicotine hydrogen tartrate], the “quality of the coating” value in series [4] (aqueous 40 wt. % nicotine hydrogen tartrate with 0.001 M fluorescein, 5 microliters on titanium foil, dried four hours at room temperature, no wetting agent) was “very poor”; in series [4] (same coating solution with 0.1 wt. % hydroxyethyl cellulose added) it was “noticeably improved”.
